Measurements from ChEMBL document CHEMBL5137095, “N-Benzyl Benzamide Derivatives as Selective Sub-Nanomolar Butyrylcholinesterase Inhibitors for Possible Treatment in Advanced Alzheimer's Disease” (J Med Chem, 2022).

What was measured:
Cholinesterase [1] = molecular target: T1, Cholinesterase (Homo sapiens, UniProt P06276); experiment: Inhibition of human BChE using acetylthiocholine iodide or butyrylthiocholine iodide as substrate preincubated for 5 mins followed by substrate addition by Ellman's method
T1 sequence (P06276 whole entry): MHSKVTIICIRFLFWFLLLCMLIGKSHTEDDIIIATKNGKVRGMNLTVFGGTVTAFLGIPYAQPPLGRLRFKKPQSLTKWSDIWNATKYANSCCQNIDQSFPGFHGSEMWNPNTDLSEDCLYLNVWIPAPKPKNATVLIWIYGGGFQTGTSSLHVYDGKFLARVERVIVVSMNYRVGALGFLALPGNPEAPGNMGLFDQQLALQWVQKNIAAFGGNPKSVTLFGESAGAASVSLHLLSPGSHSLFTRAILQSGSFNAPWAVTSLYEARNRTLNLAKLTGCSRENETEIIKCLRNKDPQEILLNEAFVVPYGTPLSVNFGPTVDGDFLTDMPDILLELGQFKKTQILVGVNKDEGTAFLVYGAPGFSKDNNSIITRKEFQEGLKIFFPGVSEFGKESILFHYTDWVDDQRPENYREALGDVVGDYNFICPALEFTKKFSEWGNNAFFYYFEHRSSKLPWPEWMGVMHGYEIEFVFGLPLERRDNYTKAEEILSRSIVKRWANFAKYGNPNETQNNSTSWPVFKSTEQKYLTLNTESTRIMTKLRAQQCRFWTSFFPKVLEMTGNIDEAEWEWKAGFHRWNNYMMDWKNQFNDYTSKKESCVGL

Cholinesterase [2] = molecular target: Cholinesterase (Equus caballus, UniProt P81908); experiment: Inhibition of horse serum BChE using acetylthiocholine iodide or butyrylthiocholine iodide as substrate preincubated for 5 mins followed by substrate addition by Ellman's method
Sequence of Cholinesterase (Equus caballus, UniProt P81908) (P81908 whole entry): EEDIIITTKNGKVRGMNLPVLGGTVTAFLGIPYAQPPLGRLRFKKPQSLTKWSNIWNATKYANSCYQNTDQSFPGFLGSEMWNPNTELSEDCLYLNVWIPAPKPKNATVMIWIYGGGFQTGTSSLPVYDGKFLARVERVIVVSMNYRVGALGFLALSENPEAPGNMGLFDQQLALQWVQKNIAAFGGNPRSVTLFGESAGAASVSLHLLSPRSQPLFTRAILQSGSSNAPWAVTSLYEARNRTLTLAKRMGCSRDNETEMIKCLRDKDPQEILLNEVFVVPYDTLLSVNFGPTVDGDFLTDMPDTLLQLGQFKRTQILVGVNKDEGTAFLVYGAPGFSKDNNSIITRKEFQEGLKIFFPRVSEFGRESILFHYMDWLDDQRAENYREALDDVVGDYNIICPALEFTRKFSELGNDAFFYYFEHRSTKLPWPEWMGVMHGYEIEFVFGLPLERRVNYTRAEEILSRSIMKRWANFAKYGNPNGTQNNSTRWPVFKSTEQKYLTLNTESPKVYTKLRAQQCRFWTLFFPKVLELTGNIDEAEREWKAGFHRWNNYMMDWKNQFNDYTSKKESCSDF

[3] = n-octanol-water partition coefficient, log P of the compound by HPLC analysis; format: physicochemical
SH-SY5Y [4] = experiment: Cytotoxicity against human SH-SY5Y cells assessed as reduction in cell viability at 10 uM by MTT assay; format: toxicity, cell-based
HT-22 = experiment: Cytotoxicity against mouse HT-22 cells assessed as reduction in cell viability at 10 uM by MTT assay; format: toxicity, cell-based; conditions: ht-22, 10 µM
PC-12 [5] = experiment: Cytotoxicity against rat PC-12 cells assessed as reduction in cell viability at 10 uM by MTT assay; format: toxicity, cell-based; conditions: pc-12, 10 µM
[6] = Cytotoxicity against human SH-SY5Y cells assessed as cell survival rate at 10 uM by MTT assay; format: toxicity, cell-based; conditions: read-out: Activity
BV-2 = experiment: Cytotoxicity against mouse BV-2 cells assessed as reduction in cell viability at 10 uM by MTT assay; format: toxicity, cell-based; conditions: bv-2, 10 µM
[7] = Cytotoxicity against mouse BV-2 cells assessed as cell survival rate at 10 uM by MTT assay; format: toxicity, cell-based; conditions: read-out: Activity
[8] = Cytotoxicity against mouse HT-22 cells assessed as cell survival rate at 10 uM by MTT assay; format: toxicity, cell-based; conditions: read-out: Activity
[9] = Cytotoxicity against rat PC-12 cells assessed as cell survival rate at 10 uM by MTT assay; format: toxicity, cell-based; conditions: read-out: Activity
[10] = Permeability of compound incubated for 18 hrs by PAMPA-BBB assay; format: ADME; conditions: read-out: permeability
SH-SY5Y [11] = experiment: Neuroprotective activity against GA-induced cell damage in human SH-SY5Y cells assessed as survival rate at 5 uM pretreated for 2 hrs followed by GA addition and measured after 24 hrs by MTT assay; format: functional
Cholinesterase [12] = molecular target: T1, Cholinesterase; experiment: Binding affinity to human BChE assessed as dissociation constant by surface plasmon resonance assay
Cholinesterase [13] = molecular target: T1, Cholinesterase; experiment: Inhibition of human BChE assessed as inhibition constant
[14] = Acute toxicity in ICR mouse assessed as abnormal behavior at 1000 mg/kg, po measured after 4 hrs; format: organism-based; conditions: in vivo
[15] = Acute toxicity in ICR mouse assessed as effect on consumption of water and food at 1000 mg/kg, po measured after 14 days; format: organism-based; conditions: in vivo, 336 h, time 14 day
[16] = Acute toxicity in ICR mouse assessed as increase in body weight at 1000 mg/kg, po measured after 14 days; format: organism-based; conditions: in vivo, 336 h, time 14 day
PC-12 [17] = experiment: Neuroprotective activity against H2O2-induced cell damage in rat PC-12 cells assessed as survival rate at 5 to 10 uM pretreated for 2 hrs followed by H2O2 addition and measured after 24 hrs by MTT assay; format: functional; conditions: dose 5-10 µM, time 26 hrs
[18] = Inhibition of human BChE assessed as inhibition constant

SMILES: CCN(CC)Cc1ccccc1CNC(=O)c1cccc(NS(=O)(=O)c2cccs2)c1
- IC50 (Cholinesterase [1]): 2610 nM
- IC50 (Cholinesterase [2]): 350 nM

SMILES: CCN(CC)Cc1ccccc1CNC(=O)c1cccc(C(=O)Nc2cccs2)c1
- IC50 (Cholinesterase [1]): 12.9 nM
- IC50 (Cholinesterase [2]): 1.19 nM

SMILES: CCN(CC)Cc1ccccc1CNC(=O)c1cccc(NC(=O)c2cccc(F)c2)c1
- IC50 (Cholinesterase [1]): 3.11 nM

SMILES: CCN(CC)Cc1ccccc1CNC(=O)c1cc(F)cc(NC(=O)c2ccc(F)cc2)c1
- IC50 (Cholinesterase [1]): 0.61 nM
- IC50 (Cholinesterase [2]): 0.55 nM
- logP [3]: 1.36

SMILES: CCN(CC)Cc1ccccc1CNC(=O)c1cccc(NC(=O)c2ccccc2)c1
- IC50 (Cholinesterase [2]): 0.96 nM

SMILES: CCN(CC)Cc1ccccc1CNC(=O)c1cccc(NC(=O)c2ccc(C)cc2)c1
- Activity (SH-SY5Y [4]): Non-Toxic
- IC50 (Cholinesterase [1]): 45 nM
- Activity (HT-22): Non-Toxic
- Activity (PC-12 [5]): Non-Toxic
- IC50 (Cholinesterase [2]): 77.3 nM
- viability at 10 µM [6]: > 70%
- Activity (BV-2): Non-Toxic
- viability at 10 µM [7]: > 70%
- viability at 10 µM [8]: > 70%
- viability at 10 µM [9]: > 70%

SMILES: CCN(CC)Cc1ccc(CNC(=O)c2cccc(NC(=O)c3cccs3)c2)cc1
- IC50 (Cholinesterase [1]): 3440 nM
- IC50 (Cholinesterase [2]): 5950 nM

SMILES: CCN(CC)Cc1ccccc1CNC(=O)c1cc(Br)cc(NC(=O)c2ccc(F)cc2)c1
- Papp at 18 h [10]: 6.93 ×10⁻⁶ cm/s
- IC50 (Cholinesterase [1]): 0.58 nM
- IC50 (Cholinesterase [2]): 0.42 nM
- logP [3]: 2.04
- Activity (SH-SY5Y [11]): 70%

SMILES: CCN(CC)Cc1ccccc1CNC(=O)c1cccc(NC(=O)c2ccccc2F)c1
- IC50 (Cholinesterase [1]): 5.04 nM
- IC50 (Cholinesterase [2]): 6.54 nM

SMILES: CCN(CC)Cc1ccccc1CNC(=O)c1cccc(NC(=O)c2ccc(Cl)cc2)c1
- Papp at 18 h [10]: 6.02 ×10⁻⁶ cm/s
- IC50 (Cholinesterase [1]): 0.76 nM
- IC50 (Cholinesterase [2]): 1.02 nM
- logP [3]: 2.67

SMILES: CCN(CC)Cc1ccccc1CNC(=O)c1ccc(C)c(NC(=O)c2ccc(F)cc2)c1
- IC50 (Cholinesterase [1]): 135 nM
- IC50 (Cholinesterase [2]): 0.38 nM

SMILES: O=C(NCc1ccccc1)c1cccc(NC(=O)c2cccs2)c1
- IC50 (Cholinesterase [1]): 31300 nM
- IC50 (Cholinesterase [2]): 97300 nM

SMILES: CCN(CC)Cc1ccccc1CNC(=O)c1cccc(NC(=O)c2ccc(I)cc2)c1
- Papp at 18 h [10]: 10.1 ×10⁻⁶ cm/s
- IC50 (Cholinesterase [1]): 0.11 nM
- IC50 (Cholinesterase [2]): 0.34 nM

SMILES: CCN(CC)Cc1ccccc1CNC(=O)c1cc(C)cc(NC(=O)c2ccc(F)cc2)c1
- Papp at 18 h [10]: 9.17 ×10⁻⁶ cm/s
- IC50 (Cholinesterase [1]): 0.039 nM
- Kd (Cholinesterase [12]): 0.064 nM
- Ki (Cholinesterase [13]): 0.094 nM
- IC50 (Cholinesterase [2]): 0.021 nM
- Activity [14]: Non-Toxic
- Activity [15]: Non-Toxic
- logP [3]: 1.26
- Activity [16]: Non-Toxic

SMILES: CCN(CC)Cc1ccccc1CNC(=O)c1cccc(NC(=O)c2c(F)c(F)c(F)c(F)c2F)c1
- IC50 (Cholinesterase [1]): 1.28 nM
- IC50 (Cholinesterase [2]): 0.48 nM

SMILES: CCN(CC)Cc1ccccc1CNC(=O)c1ccccc1NC(=O)c1ccc(F)cc1
- IC50 (Cholinesterase [1]): 115 nM
- IC50 (Cholinesterase [2]): 187 nM

SMILES: CCN(CC)Cc1ccccc1CNC(=O)c1cccc(NC(=O)c2ccco2)c1
- Activity (SH-SY5Y [4]): Non-Toxic
- Papp at 18 h [10]: 6.89 ×10⁻⁶ cm/s
- IC50 (Cholinesterase [1]): 0.26 nM
- Activity (HT-22): Non-Toxic
- Activity (PC-12 [5]): Non-Toxic
- viability at 10 µM [6]: > 70%
- Activity (BV-2): Non-Toxic
- viability at 10 µM [7]: > 70%
- viability at 10 µM [8]: > 70%
- viability at 10 µM [9]: > 70%

SMILES: CCCN(CCC)Cc1ccccc1CNC(=O)c1cccc(NC(=O)c2cccs2)c1
- Activity (SH-SY5Y [4]): Non-Toxic
- Papp at 18 h [10]: 8.69 ×10⁻⁶ cm/s
- IC50 (Cholinesterase [1]): 0.67 nM
- Activity (HT-22): Non-Toxic
- Activity (PC-12 [5]): Non-Toxic
- viability at 10 µM [6]: > 70%
- Activity (BV-2): Non-Toxic
- viability at 10 µM [7]: > 70%
- logP [3]: 1.02
- viability at 10 µM [8]: > 70%
- Activity (PC-12 [17]): 61.7%
- viability at 10 µM [9]: > 70%

SMILES: CCN(CC)Cc1ccccc1CNC(=O)c1cc(NC(=O)c2ccc(F)cc2)ccc1C
- Activity (SH-SY5Y [4]): Non-Toxic
- IC50 (Cholinesterase [1]): 2.71 nM
- Activity (HT-22): Non-Toxic
- Activity (PC-12 [5]): Non-Toxic
- IC50 (Cholinesterase [2]): 1.35 nM
- viability at 10 µM [6]: > 70%
- Activity (BV-2): Non-Toxic
- viability at 10 µM [7]: > 70%
- viability at 10 µM [8]: > 70%
- viability at 10 µM [9]: > 70%

SMILES: CCN(CC)C(C)CN1c2ccccc2Sc2ccccc21 (stereo unspecified) [ETHOPROPAZINE]
- Ki [18]: 20 nM

SMILES: Cc1ccc2c(c1)sc(-c1ccc(N(C)C)cc1)[n+]2C [THIOFLAVIN T]
- Ki (Cholinesterase [13]): 800 nM
